Experimental data: ChEMBL document CHEMBL5528062 (J Med Chem, 2024)

Columns and labels:
[1] = tested on: Mycobacterium tuberculosis; experiment: Induction of resistance development in Mycobacterium tuberculosis harbouring katG F594C mutant assessed as resistance frequency at 5 times of MIC by visual analysis; format: functional
[2] = tested on: Mycobacterium tuberculosis; experiment: Induction of resistance development in Mycobacterium tuberculosis harbouring atpE gene assessed as resistance frequency at 5 times of MIC by visual analysis; format: functional

Row | SMILES | Activity [1] [%] | Activity [2] [%]
1 | C[C@]1(COc2ccc(N3CCC(Oc4ccc(OC(F)(F)F)cc4)CC3)cc2)Cn2cc([N+](=O)[O-])nc2O1 | 2 | 
2 | COc1nc2ccc(Br)cc2cc1[C@@H](c1ccccc1)[C@@](O)(CCN(C)C)c1cccc2ccccc12 [BEDAQUILINE] | 5.26 | 17.3
